Test results from patent publication US12435061B2 (priority 2020, dated 2025).
Values after ≈ are worked out from the molar mass of the structure shown. Counter-ions that a name gives are not always drawn. Like-named read-outs stand apart in the source and are kept apart here.

Columns and labels:
[1] = Aqueous solubility assay in Normal Ringer Solution; details: Normal Ringer Solution; for Solubility Ringer (nM): room temperature; for solubility at 40 min: saline or isotonic, kinetic from dmso stock
Method: Following vortex and incubation for a sufficient time (e.g. 40 minutes at room temperature), solutions were filtered, quenched with acetonitrile, and analyzed by Liquid Chromotography. Solubility Limits were determined by comparison to a standard curve.

hTRPV3 = hTRPV3 (Homo sapiens (Human), UniProt Q8NET8); assay: Whole-cell patch clamp, hTRPV3 Phase 1 / Phase 2 currents; type: cell-based
Summary of the method: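 Currents are activated by 20 μM 2-APB or by perfusate at 28 °C or warmer, in Ringer's solution, and quantified at ±80 mV.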

[2] = Phase 1 current, inward, whole-cell patch clamp, read-out: hTRPV3 Patch P1 Inwd
[3] = Phase 1 current, read-out: hTRPV3 (nM) (Phase 1)
[4] = Phase 2 current, inward, whole-cell patch clamp, read-out: hTRPV3 Patch P2 Inwd
[5] = Phase 2 current, read-out: hTRPV3 (nM) (Phase 2)
[6] = Phase 1 current, human TRPV3, read-out: hTRPV3 (nM) Phase 1
[7] = read-out: hTRPV3 (nM) (Phase 2)

Sequence of hTRPV3 (Q8NET8 whole entry): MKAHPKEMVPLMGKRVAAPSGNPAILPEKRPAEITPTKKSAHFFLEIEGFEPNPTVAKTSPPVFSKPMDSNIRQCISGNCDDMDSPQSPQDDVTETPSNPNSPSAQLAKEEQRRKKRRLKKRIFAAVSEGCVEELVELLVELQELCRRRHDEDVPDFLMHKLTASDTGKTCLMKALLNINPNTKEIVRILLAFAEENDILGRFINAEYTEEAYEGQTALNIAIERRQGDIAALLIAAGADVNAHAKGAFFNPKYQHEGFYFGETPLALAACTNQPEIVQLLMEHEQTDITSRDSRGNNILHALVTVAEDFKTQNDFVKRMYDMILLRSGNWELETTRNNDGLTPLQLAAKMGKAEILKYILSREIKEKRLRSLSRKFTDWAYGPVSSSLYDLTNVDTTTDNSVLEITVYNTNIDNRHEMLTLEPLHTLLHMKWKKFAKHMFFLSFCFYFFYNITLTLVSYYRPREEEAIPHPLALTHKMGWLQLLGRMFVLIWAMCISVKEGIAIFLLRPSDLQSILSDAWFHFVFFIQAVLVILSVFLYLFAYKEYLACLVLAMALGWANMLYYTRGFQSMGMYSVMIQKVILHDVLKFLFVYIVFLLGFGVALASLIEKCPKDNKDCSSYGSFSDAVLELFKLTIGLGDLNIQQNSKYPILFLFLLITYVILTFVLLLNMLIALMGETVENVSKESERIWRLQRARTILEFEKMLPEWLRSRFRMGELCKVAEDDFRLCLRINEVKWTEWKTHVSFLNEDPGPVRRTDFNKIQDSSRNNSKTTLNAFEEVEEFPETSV

Row | Structure (SMILES) | IC50 (hTRPV3; [2]) | IC50 (hTRPV3; [3]) | IC50 (hTRPV3; [4]) | IC50 (hTRPV3; [5]) | solubility at 40 min [1] | also measured
1 | OCc1cc(-c2ccccc2)ccc1N1CC[C@@H](Oc2ccc(C(F)(F)F)cn2)C1 [Compound 1-110, (R)-(4-(3-(5-(trifluoromethyl)pyridin-2-yloxy)pyrrolidin-1-yl)biphenyl-3-yl)methanol] | 100 to 1000 nM | 710 nM | 100 to 1000 nM | 685 nM | – | Solubility Ringer (nM) [1]: BLQ
2 | CN(C)C(=O)c1ccccc1-c1ccc(N2CC[C@H](Oc3ccc(C(F)(F)F)cn3)C2)c(CO)c1 [Compound 1-167, (S)-3′-(hydroxymethyl)-N,N-dimethyl-4′-(3-(5-(trifluoromethyl)pyridin-2-yloxy)pyrrolidin-1-yl)biphenyl-2-carboxamide] | > 1000 nM | ~1290 nM | > 1000 nM | > 3200 nM | > 12.6 µM | –
3 | CC(O)c1ccccc1-c1ccc(N2CC[C@H](Oc3ccc(C(F)(F)F)cn3)C2)c(CO)c1 (stereo partly drawn) [Compound 1-171, 1-(3′-(hydroxymethyl)-4′-((S)-3-(5-(trifluoromethyl)pyridin-2-yloxy)pyrrolidin-1-yl)biphenyl-2-yl)ethanol] | 100 to 1000 nM | 740 nM | 100 to 1000 nM | 636 nM | > 5.35 µM | –
4 | Cc1ccccc1Oc1ccc(C2CCN(Cc3ncccc3Cl)C2)c(CO)c1 (stereo not drawn) [Compound 2-86] | 100 to 1000 nM | – | – | – | ~2.2 µM (≈ 0.9 µg/mL) | IC50 (hTRPV3; [6]): 226 nM
5 | NC(=O)c1cc(-c2ccccc2)ccc1N1CC[C@@H](Oc2ncccc2Cl)C1 [Compound 1-75, (R)-4-(3-(3-chloropyridin-2-yloxy)pyrrolidin-1-yl)biphenyl-3-carboxamide] | > 1000 nM | ~2300 nM | 100 to 1000 nM | 342 nM | 0.32 µM (≈ 0.126 µg/mL) | –
6 | NC(=O)c1cc(-c2cccnc2)ccc1N1CC[C@H](Oc2ccc(C(F)(F)F)cn2)C1 [Compound 1-80, (S)-5-(pyridin-3-yl)-2-(3-(5-(trifluoromethyl)pyridin-2-yloxy)pyrrolidin-1-yl)benzamide] | > 1000 nM | > 3200 nM | > 1000 nM | ~5900 nM | > 3.3 µM | –
7 | CC(C)Oc1ccccc1N1CC[C@H](Oc2ccc3cc(Cl)ccc3n2)C1 [Compound 1-76, (S)-6-chloro-2-(1-(2-isopropoxyphenyl)pyrrolidin-3-yloxy)quinoline] | > 1000 nM | > 3200 nM | > 1000 nM | ~4600 nM | – | Solubility Ringer (nM) [1]: BLQ
8 | CCc1ccccc1C(O)c1ccc(N2CC[C@H](Oc3ncccc3Cl)C2)c(CO)c1 (stereo partly drawn) [Compound 1-257, (4-((S)-3-(3-chloropyridin-2-yloxy)pyrrolidin-1-yl)-3-(hydroxymethyl)phenyl)(2-ethylphenyl)methanol] | 100 to 1000 nM | 1060 nM | > 1000 nM | 1110 nM | > 6.6 µM | –
9 | N#Cc1cc(-c2ccccc2)ncc1N1CC[C@@H](Oc2ccc(C(F)(F)F)cn2)C1 [Compound 1-94] | – | – | – | ~117 nM | – | Solubility Ringer (nM) [1]: BLQ; hTRPV3 (nM) (Phase 2) (hTRPV3; Phase 2 current): Incomplete Block; IC50 (hTRPV3; Phase 2 current, inward, numeric value printed in cell (flagged), read-out: hTRPV3 Patch P2 Inwd): ~117 nM
10 | NC(=O)c1cc(-c2ccncc2)ccc1N1CC[C@H](Oc2ccc(C(F)(F)F)cn2)C1 [Compound 1-83, (S)-5-(pyridin-4-yl)-2-(3-(5-(trifluoromethyl)pyridin-2-yloxy)pyrrolidin-1-yl)benzamide] | > 1000 nM | 2840 nM | > 1000 nM | 3350 nM | > 3.9 µM | –
11 | OCc1cc(-c2ccccc2)ccc1N1CC[C@H](Oc2ccccn2)C1 [Compound 1-274] | 100 to 1000 nM | 241 nM | – | – | ~5.5 µM (≈ 1.91 µg/mL) | –
12 | OCc1cc([C@H](O)c2ccccc2Cl)ccc1N1CC[C@H](Oc2ncccc2F)C1 [Compound 1-322, (2-chlorophenyl)(4-((S)-3-(3-fluoropyridin-2-yloxy)pyrrolidin-1-yl)-3-(hydroxymethyl)phenyl)methanol] | 100 to 1000 nM | 794 nM | – | – | > 9.3 µM | –
13 | OCc1cc(Oc2ccccc2Cl)ccc1N1CC[C@H](Nc2ncccc2Cl)C1 [Compound 1-382, (S)-(5-(2-chlorophenoxy)-2-(3-(3-chloropyridin-2-ylamino)pyrrolidin-1-yl)phenyl)methanol] | 10 to 100 nM | 30.9 nM | – | – | 0.5 µM (≈ 0.215 µg/mL) | –
14 | OCc1cc(Oc2ccccc2)ccc1N1CC[C@H](Nc2ncccc2Cl)C1 [Compound 1-381, (S)-(2-(3-(3-chloropyridin-2-ylamino)pyrrolidin-1-yl)-5-phenoxyphenyl)methanol] | 10 to 100 nM | 23.3 nM | – | – | > 1.6 µM | –
15 | NCc1cc(-c2ccccc2)ccc1N1CC[C@@H](Oc2ccc(C(F)(F)F)cn2)C1 [Compound 1-109, (R)-(4-(3-(5-(trifluoromethyl)pyridin-2-yloxy)pyrrolidin-1-yl)biphenyl-3-yl)methanamine hydrochloride] | – | – | – | – | > 2.95 µM | IC50 (hTRPV3; hTRPV3 Patch P1 Inwd (nM)): > 1000 nM; IC50 (hTRPV3; hTRPV3 Patch P2 Inwd (nM)): > 1000 nM; IC50 (hTRPV3; read-out: hTRPV3 (nM) (Phase 1)): 1870 nM; IC50 (hTRPV3; [7]): 1930 nM
16 | Cc1ccc(O[C@H]2CCN(c3ccc(Oc4ccccc4C)nc3CO)C2)nc1 [Compound 1-203, (S)-(3-(3-(5-methylpyridin-2-yloxy)pyrrolidin-1-yl)-6-(o-tolyloxy)pyridin-2-yl)methanol] | > 1000 nM | ~5050 nM | > 1000 nM | 3270 nM | ~1.4 µM (≈ 0.548 µg/mL) | –
17 | OCc1cc(Oc2ccc(Cl)cc2)ccc1N1CC[C@H](Oc2ncccc2Cl)C1 [Compound 1-249, (S)-(5-(4-chlorophenoxy)-2-(3-(3-chloropyridin-2-yloxy)pyrrolidin-1-yl)phenyl)methanol] | 10 to 100 nM | 22.1 nM | – | – | – | Solubility Ringer (nM) [1]: BLQ
18 | NC(=O)c1ccccc1-c1ccc(N2CC[C@H](Oc3ccc(C(F)(F)F)cn3)C2)c(CO)c1 [Compound 1-159, (S)-3′-(hydroxymethyl)-4′-(3-(5-(trifluoromethyl)pyridin-2-yloxy)pyrrolidin-1-yl)biphenyl-2-carboxamide] | > 1000 nM | > 3200 nM | > 1000 nM | > 3200 nM | > 16.6 µM | –
19 | COc1ccccc1Oc1ccc(N2CC[C@H](Oc3ncccc3C)C2)c(CO)c1 [Compound 1-340, (S)-(5-(2-methoxyphenoxy)-2-(3-(3-methylpyridin-2-yloxy)pyrrolidin-1-yl)phenyl)methanol] | 10 to 100 nM | 70.1 nM | 10 to 100 nM | 74.4 nM | ~2.4 µM (≈ 0.976 µg/mL) | –
20 | Cl.NC(=O)c1cc(-c2cccnc2)ccc1N1CC[C@@H](Oc2ncccc2Cl)C1 [Compound 1-74, (R)-2-(3-(3-chloropyridin-2-yloxy)pyrrolidin-1-yl)-5-(pyridin-3-yl)benzamide hydrochloride] | – | – | – | – | > 13.5 µM | IC50 (hTRPV3; hTRPV3 Patch P2 Inwd (nM)): > 1000 nM; IC50 (hTRPV3; [7]): ~5040 nM
21 | N#Cc1ccccc1-c1ccc(N2CC[C@H](Oc3ccc(C(F)(F)F)cn3)C2)c(CO)n1 [Compound 1-197, (S)-2-(6-(hydroxymethyl)-5-(3-(5-(trifluoromethyl)pyridin-2-yloxy)pyrrolidin-1-yl)pyridin-2-yl)benzonitrile] | 10 to 100 nM | ~38.5 nM | – | – | ~0.4 µM (≈ 0.176 µg/mL) | –
22 | Cc1ccc(Oc2ccc(N3CC[C@H](Oc4ncccc4Cl)C3)c(CO)c2)cc1 [Compound 1-250, (S)-(2-(3-(3-chloropyridin-2-yloxy)pyrrolidin-1-yl)-5-(p-tolyloxy)phenyl)methanol] | < 10 nM | 8.42 nM | – | – | ~0.1 µM (≈ 0.0411 µg/mL) | –
23 | OCc1cc(-c2ccccc2)ccc1N1CC[C@H](Nc2nc(C(F)(F)F)cs2)C1 [Compound 1-394, (S)-(4-(3-(4-(trifluoromethyl)thiazol-2-ylamino)pyrrolidin-1-yl)biphenyl-3-yl)methanol] | 100 to 1000 nM | 616 nM | 100 to 1000 nM | 496 nM | 1.87 µM (≈ 0.784 µg/mL) | –
24 | OCc1cc(-c2ccccn2)ccc1N1CC[C@H](Oc2ccc(C(F)(F)F)cn2)C1 [Compound 1-254, (S)-(5-(pyridin-2-yl)-2-(3-(5-(trifluoromethyl)pyridin-2-yloxy)pyrrolidin-1-yl)phenyl) methanol] | > 1000 nM | 1290 nM | – | – | – | –
25 | Cc1cccc(C(=O)c2ccc(C3CCN(C(=O)c4ncccc4Cl)C3)c(CO)c2)c1 (stereo not drawn) [Compound 2-9, (4-(1-(3-chloropicolinoyl)pyrrolidin-3-yl)-3-(hydroxymethyl)phenyl)(m-tolyl)methanone] | > 1000 nM | – | – | – | – | IC50 (hTRPV3; [6]): > 3200 nM
26 | OCc1cc(Oc2ccc(Cl)c(Cl)c2)ccc1N1CC[C@H](Oc2ccccn2)C1 [Compound 1-344] | 10 to 100 nM | 65.3 nM | – | – | – | –
27 | CCc1ccccc1Oc1ccc(N2CC[C@H](Oc3ccccn3)C2)c(CCO)c1 [Compound 1-335] | 10 to 100 nM | 66.3 nM | – | – | – | –
28 | N#Cc1ccc(-c2ccc(N3CC[C@H](Oc4ccc(C(F)(F)F)cn4)C3)c(CO)c2)cc1 [Compound 1-252, (S)-3′-(hydroxymethyl)-4′-(3-(5-(trifluoromethyl)pyridin-2-yloxy)pyrrolidin-1-yl)biphenyl-4-carbonitrile] | 100 to 1000 nM | 886 nM | – | – | – | –
29 | CCc1ccccc1C(=O)c1ccc(N2CC[C@H](Nc3ncccc3Cl)C2)c(CO)c1 [Compound 1-384, (S)-(4-(3-(3-chloropyridin-2-ylamino)pyrrolidin-1-yl)-3-(hydroxymethyl)phenyl)(2-ethylphenyl)methanone] | 100 to 1000 nM | 495 nM | – | – | – | –
